Measurements: patent US11034725B2, “Compositions and methods for treating cardiovascular disease” (Genentech, Inc., priority 2016, dated 2021)
“Also recorded” adds a separate entry of the source. Read-outs that look alike come from different tables or passages of the source. Bridge positions count the residues as written; N and C are the ends. Square brackets hold non-standard residues; d marks the D form. Peptide text beside a SMILES is read from it. hArg = N=C(N)NCCCC[C@H](N)C(=O)O

Key:
PCSK9Δhelix [1] = biological target: T1, PCSK9Δhelix (Homo sapiens, UniProt Q8NBP7); experiment: SPR affinity measurements of peptide binding (Example 8); details: for Kd: Table 10, binding to PCSK9Δhelix
T1 construct: Human PCSK9 construct M1-Q692 with an engineered TEV site (residue deletion Y166, R167); made in house; host or cells: CHO
Protocol: A Biacore™ T100 or Biacore™ 8K was adjusted to 20° C. The system was primed into assay buffer which consisted of 25 mM HEPES, pH 7.5, 0.15 M NaCl, 0.005% (v/v) Tween® 20, 0.2 mM tris(2-carboxyethyl)phosphine and optionally contained 0.1% (w/v) carboxymethylated dextran (average MW 10 kDa) and 0.2% (w/v) PEG (average MW 3450 Da) in order to reduce potential non-specific binding. Peptides were assayed by capturing fresh PCSK9 or PCSK9Δhelix after each binding regeneration cycle by exploiting a histidine tag and an NTA-sensor chip. The surface was charged with (His)8-tagged PCSK9 (approximately 800 RU captured). […] Compound 19 and Compound 20 were assayed in six serial two-fold dilutions from 100 nM to 3.1 nM. All peptides were analyzed in duplicate by serial injection (50 μL/min for 1 min) of peptide dilution from low to high concentration. The surface was then stripped of target by injecting 0.5 M EDTA, pH 8.0. This sequence was repeated for each peptide binding cycle and blank control cycles.
All SPR data was recorded in duplicate for five, or more serial dilutions, except for the two fusion peptides, which produced extremely low fitting error. Multicycle data (i.e. separate curves for each concentration) and single cycle data (i.e. single curve with serial injection of each concentration) were double referenced and fitted to an interaction model using BIAevaluation software. Peptide binding to PCSK9 produced deviations from a simple 1:1 binding interaction model that required application of a two-state model for determination of Kd while interactions with PCSK9Δhelix conformed well to simple 1:1 binding. Kinetic curvature was poorly defined for rapidly dissociating peptides and in these cases Kd was estimated from a steady-state dose response plot. Kd values were reported with associated standard error, a measure of confidence in that parameter value.

PCSK9Δhelix [2] = biological target: T1, PCSK9Δhelix; experiment: PCSK9Δhelix/Ab20 TR-FRET binding assay
His-EGF(A)-Fc = His-EGF(A)-Fc TR-FRET counterscreen
PCSK9 [3] = biological target: T2, PCSK9 (Homo sapiens, UniProt Q8NBP7); experiment: PCSK9/EGF(A) TR-FRET binding assay
[4] = biological target: T3, PCSK9-R167A:R215A:R218A (PCSK9-AAA) (Homo sapiens, UniProt Q8NBP7, R167A/R215A/R218A); experiment: FXIa cleavage assay of the P′ helix of PCSK9-AAA; type: biochemical; details: immunoblot with anti-N-terminal peptide antibody
T3 construct: made in house; host or cells: CHO (transient)
Protocol: The PCSK9-AAA mutant (2.6 μM) was incubated with 50 nM FXIa (Haematologic Technologies) in Tris buffer (50 mM Tris, 150 mM NaCl, 4 mM CaCl2, pH 8.0) at room temperature for the indicated time periods. […] After SDS-PAGE of the samples, proteins were transferred to a nitrocellulose membrane using iBlot (Invitrogen). Proteins were then probed with a polyclonal rabbit antibody (1:3000) raised against the PCSK9 N-terminal peptide (^153[…]^168 (SEQ ID NO: 5)), followed with HRP-conjugated donkey anti-rabbit antibody (1:5000, GE Healthcare) using iBind (Invitrogen). PCSK9 signals were detected by ECL (GE Healthcare) and visualized by autoradiography.
Proteins were then probed with a polyclonal rabbit antibody (1:3000) raised against the PCSK9 N-terminal peptide (^153[…]^168 (SEQ ID NO: 5)), followed with HRP-conjugated donkey anti-rabbit antibody (1:5000, GE Healthcare) using iBind (Invitrogen). PCSK9 signals were detected by ECL (GE Healthcare) and visualized by autoradiography.

PCSK9 [5] = biological target: T2, PCSK9; experiment: PCSK9/LDLR-Fc TR-FRET assay (LDLR assay); type: binding; details: Table 11, LDLR-Fc, average ±S.D. of three experiments
Protocol: In black 1536-well assay plates (MaKO, Aurora® Microplates, Whitefish, Mont.), 40 nL of peptide in DMSO were preincubated with 2 μL His-tagged PCSK9 plus anti-His-allophycocyanin in assay buffer (50 mM Tris-HCl, pH 7.5, 150 mM NaCl, 2 mM CaCl2, 0.01% Tween®-20, 0.1% bovine gamma globulins, and protease inhibitor cocktail) for 30 min. Then 2 μL of Fc-tagged ligand and anti-Fc-europium in assay buffer were added and allowed to incubate for 2 h. The PCSK9 and ligand conditions for each assay are as follows: 10 nM C-terminal (His)8-tagged PCSK9 (“(His)8” disclosed as SEQ ID NO: 304) and 12 nM EGF(A)-Fc for the EGF(A) assay, 10 nM C-terminal (His)8-tagged PCSK9 (“(His)8” disclosed as SEQ ID NO: 304) and 2.5 nM LDLR-Fc for the LDLR assay, 1.25 nM C-terminal (His)8-tagged PCSK9Δhelix (“(His)8” disclosed as SEQ ID NO: 304) and 0.75 nM Ab20 for the Ab20 assay, and 2 nM His-EGF(A)-Fc alone for the counterscreen. In all assays, anti-His-allophycocyanin and anti-Fc-europium were used at 20 nM and 2 nM, respectively. Fluorescence was measured with excitation at 340 nm and emission at 671 nm and 618 nm. The TR-FRET ratio was calculated as fluorescence at 671 nm/fluorescence at 618 nm. The ratios were normalized to controls and plotted against peptide concentration to determine IC50 values (Screener Analyzer, Genedata, Basel, CH). The peptides were evaluated in three separate experiments per assay with 10-point titrations and n=2 per concentration. The values presented are the average ±S.D. of three independent experiments.

PCSK9Δhelix [6] = biological target: T1, PCSK9Δhelix; experiment: Surface plasmon resonance biosensor-based affinity analysis (Example 4); type: binding; details: Table 7, Target PCSK9Δhelix, SPR at 20° C.; read-out: Kd
[7] = TR-FRET, Example 7, read-out: PCSK9Δhelix/Ab20 IC50
[8] = Table 10, average ±S.D. of three experiments, read-out: Ab20 IC50
[9] = TR-FRET, Example 7, read-out: PCSK9/EGF(A) IC50
[10] = TR-FRET, Table 8E, additional compounds, read-out: PCSK9Δhelix/Ab20 IC50
[11] = Table 11, average ±S.D. of three experiments, read-out: Ab20 IC50
[12] = TR-FRET counterscreen, Table 8E, additional compounds
[13] = TR-FRET, Table 8E, additional compounds, read-out: PCSK9/EGF(A) IC50
[14] = Table 11, average ±S.D. of three experiments, read-out: EGF(A) IC50

| Molecule | Kd (PCSK9Δhelix [1]) [µM] | IC50 (PCSK9Δhelix [2]; [7]) [µM] | IC50 (PCSK9Δhelix [2]; [8]) [µM] | IC50 (His-EGF(A)-Fc; counterscreen, Example 7) [µM] | IC50 (PCSK9 [3]; [9]) [µM] | IC50 (PCSK9 [5]) [µM] | IC50 (PCSK9Δhelix [2]; [10]) [µM] | IC50 (PCSK9Δhelix [2]; [11]) [µM] | IC50 (His-EGF(A)-Fc; [12]) [µM] | IC50 (PCSK9 [3]; [13]) [µM] | IC50 (PCSK9 [3]; [14]) [µM] | other results |
| --- | --- | --- | --- | --- | --- | --- | --- | --- | --- | --- | --- | --- |
| Ac-DLMPWNLVRIGLLR-NH2 [Compound 35] | 1.38 | 4.8 | 7.9 ± 0.1 | > 50 | > 50 |  |  |  |  |  |  |  |
| CC[C@H](C)[C@@H]1NC(=O)[C@H](CCCNC(=N)N)NC(=O)[C@H](CCC(N)=O)NC(=O)[C@H](CC(C)C)NC(=O)[C@H](CC(N)=O)NC(=O)[C@H](Cc2c[nH]c3ccccc23)NC(=O)[C@@H]2CCCN2C(=O)[C@H]([C@@H](C)CC)NC(=O)[C@H](Cc2ccccc2)NC(=O)[C@@H](NC(=O)CNC(=O)[C@H](CO)NC(C)=O)CSSC[C@@H](C(N)=O)NC(=O)[C@H](CC(C)C)NC(=O)[C@H](CC(C)C)NC(=O)CNC1=O [Compound 29] (Ac-SGCFIPWNLQRIGLLC-NH2; disulfide 3-16) |  |  |  |  |  |  |  |  |  |  |  | effect on FXIa-mediated cleavage of the P′ helix of PCSK9-AAA [4]: accelerated the cleavage reaction; also recorded: able to increase the FXIa-mediated cleavage; also recorded: strongly accelerated the cleavage; IC50 (PCSK9Δhelix [2]; TR-FRET, Table 8D, disulfide-cyclized extension peptides, read-out: PCSK9Δhelix/Ab20 IC50): 1.9 µM; IC50 (His-EGF(A)-Fc; TR-FRET counterscreen, Table 8D, * = some inhibition at highest concentrations, not sufficient to fit an IC50): > 50 µM; IC50 (PCSK9 [3]; TR-FRET, Table 8D, disulfide-cyclized extension peptides, read-out: PCSK9/EGF(A) IC50): > 50 µM |
| CC[C@H](C)[C@H](NC(=O)[C@H](CCCCNC(=N)N)NC(=O)[C@@H](NC(=O)[C@H](CC(C)C)NC(=O)[C@H](CC(N)=O)NC(=O)[C@H](Cc1c[nH]c2ccccc12)NC(=O)CNC(=O)[C@@H]1CCCN1C(=O)[C@H](Cc1ccccc1)NC(=O)[C@H](CO)NC(=O)[C@H](CCC(=O)O)NC(C)=O)C(C)C)C(=O)NCC(=O)N[C@@H](CC(C)C)C(=O)N[C@@H](CC(C)C)C(=O)N[C@@H](CCCNC(=N)N)C(N)=O [Compound 227] (Ac-ESFPGWNLV[hArg]IGLLR-NH2) |  |  |  |  |  | > 50 | 24 | 2.51 ± 0.11 | ≥ 50 | 2.5 | 23.2 ± 0.3 | lower inhibitory activity versus Compound 229 (PCSK9 [3]; Table 11): approximately 3 fold |
| Ac-WNLVRIGLLR-NH2 [Compound 53] | 14 | 33.1 | 52.4 ± 3.4 | > 50 | > 50 |  |  |  |  |  |  | reduction of binding affinity (PCSK9Δhelix [1]; Table 10, elimination of Pro4): 10 fold; Kd (PCSK9Δhelix [6]): 33.8 µM |
| Ac-MPWNLVRIGLLR-NH2 [Compound 51] | 1.4 | 4.69 | 6.6 ± 0.3 | > 50 | > 50 |  |  |  |  |  |  | Kd (PCSK9Δhelix [6]): 2.7 µM |
| Ac-LMPWNLVRIGLLR-NH2 [Compound 50] | 0.47 | 2.66 | 3.6 ± 0.2 | > 50 | > 50 |  |  |  |  |  |  | Kd (PCSK9Δhelix [6]): 1.6 µM |
| CC[C@H](C)[C@H](NC(=O)[C@H](CCCCNC(=N)N)NC(=O)[C@@H](NC(=O)[C@H](CC(C)C)NC(=O)[C@H](CC(N)=O)NC(=O)[C@H](Cc1c[nH]c2ccccc12)NC(=O)CNC(=O)[C@@H]1CCCN1C(=O)[C@H](Cc1ccc(O)cc1)NC(=O)[C@H](CO)NC(=O)[C@H](CC(=O)O)NC(C)=O)C(C)C)C(=O)NCC(=O)N[C@@H](CC(C)C)C(=O)N[C@@H](CC(C)C)C(=O)N[C@@H](CCCNC(=N)N)C(N)=O [Compound 230] (Ac-DSYPGWNLV[hArg]IGLLR-NH2) |  |  |  |  |  | > 50 | 24 | 2.42 ± 0.2 | ≥ 50 | 2.3 | 24.2 ± 0.8 |  |
| Ac-TVATSAEEYLLWV-NH2 [Pep2-8-ctrl, reference compound] |  |  |  |  |  |  |  |  |  |  |  | effect on FXIa-mediated cleavage of the P′ helix of PCSK9-AAA [4]: did not prevent cleavage; effect on FXIa-mediated cleavage of the P′ helix of PCSK9-AAA ([4]; listed as control peptide): did not inhibit cleavage |
| CC[C@H](C)[C@H](NC(=O)[C@H](CCCCNC(=N)N)NC(=O)[C@@H](NC(=O)[C@H](CC(C)C)NC(=O)[C@H](CC(N)=O)NC(=O)[C@H](Cc1c[nH]c2ccccc12)NC(C)=O)C(C)C)C(=O)NCC(=O)N[C@@H](CC(C)C)C(=O)N[C@@H](CC(C)C)C(=O)N[C@@H](CCCNC(=N)N)C(N)=O [Compound 192, Ac-WNLV(homoR)IGLLR-NH2] (Ac-WNLV[hArg]IGLLR-NH2) | 1 |  |  |  |  | > 50 | 5.3 | 5.55 ± 0.36 | ≥ 50 | ≥ 50 | > 50 | improvement of binding affinity by homo-arginine substitution (PCSK9Δhelix [1]; Table 10, versus Compound 53): 14 fold |
| EGFA-Fc: Fc fusion protein of the EGFA domain of LDLR |  |  |  |  |  |  |  |  |  |  |  | effect on FXIa-mediated cleavage of the P′ helix of PCSK9-AAA [4]: largely prevented cleavage |
| CC[C@H](C)[C@H](NC(=O)[C@H](CCCCNC(=N)N)NC(=O)[C@@H](NC(=O)[C@H](CC(C)C)NC(=O)[C@H](CC(N)=O)NC(=O)[C@H](Cc1c[nH]c2ccccc12)NC(=O)CNC(=O)[C@@H]1CCCN1C(=O)[C@H](Cc1ccc(O)cc1)NC(=O)[C@H](CO)NC(=O)[C@H](CCC(=O)O)NC(C)=O)C(C)C)C(=O)NCC(=O)N[C@@H](CC(C)C)C(=O)N[C@@H](CC(C)C)C(=O)N[C@@H](CCCNC(=N)N)C(N)=O [Compound 231] (Ac-ESYPGWNLV[hArg]IGLLR-NH2) |  |  |  |  |  | > 50 | 17 | 1.49 ± 0.1 | ≥ 50 | 1.6 | 15.8 ± 0.1 |  |
